Legend:
[1] = target: T1, Alpha-1B adrenergic receptor (Rattus norvegicus, UniProt P15823); test: DRUGMATRIX: Alpha-1B adrenergic receptor radioligand binding (ligand: prazosin); assay type: cell membranes, Wistar, Liver, Membrane; conditions: Not Active = under 50% inhibition at 10 µM
T1 sequence (P15823 whole entry): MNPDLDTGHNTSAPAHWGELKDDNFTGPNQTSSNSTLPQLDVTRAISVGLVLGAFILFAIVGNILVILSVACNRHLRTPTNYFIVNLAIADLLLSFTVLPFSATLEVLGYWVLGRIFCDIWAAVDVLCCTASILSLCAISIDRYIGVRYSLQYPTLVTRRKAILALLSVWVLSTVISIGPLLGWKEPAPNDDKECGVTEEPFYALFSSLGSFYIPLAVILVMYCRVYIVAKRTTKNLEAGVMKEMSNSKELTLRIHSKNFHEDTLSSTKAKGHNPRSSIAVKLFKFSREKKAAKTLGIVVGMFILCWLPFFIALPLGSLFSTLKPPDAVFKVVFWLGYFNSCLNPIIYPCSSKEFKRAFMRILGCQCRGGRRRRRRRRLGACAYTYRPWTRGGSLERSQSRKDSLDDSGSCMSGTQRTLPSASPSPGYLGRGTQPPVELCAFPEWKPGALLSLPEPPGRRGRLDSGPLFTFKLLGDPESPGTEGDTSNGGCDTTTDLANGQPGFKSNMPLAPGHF

[2] = target: Beta-2 adrenergic receptor (Homo sapiens, UniProt P07550); test: DRUGMATRIX: Adrenergic beta2 radioligand binding (ligand: [3H] CGP-12177); assay type: cell membranes, Membrane; conditions: cho; Not Active = under 50% inhibition at 10 µM
[3] = target: 5-hydroxytryptamine receptor 4 (Cavia porcellus, UniProt O70528); assay type: cell membranes, Dunkin-Hartley, Striatum, Membrane; further: in other assays of this panel Not Active means under 50% inhibition at 10 µM
[4] = DRUGMATRIX: GABAA, Muscimol, Central radioligand binding (ligand: [3H] Muscimol); assay type: cell membranes, Rattus norvegicus, Wistar, Brain, Membrane; conditions: Not Active = under 50% inhibition at 10 µM
[5] = DRUGMATRIX: Phosphodiesterase PDE4 enzyme inhibition (substrate: [3H]cAMP + cAMP); conditions: u-937; Not Active = under 50% inhibition at 10 µM
[6] = target: Platelet-activating factor receptor (Homo sapiens, UniProt P25105); test: biochemical; assay type: tissue-based; conditions: platelet; further: in other assays of this panel Not Active means under 50% inhibition at 10 µM
[7] = target: T2, Angiotensin-converting enzyme (Oryctolagus cuniculus, UniProt P12822); test: biochemical; assay type: tissue-based, Lung;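 further: enzymatic inhibition of angiotensin-converting enzyme measured with FAPGG as the substrate; in other assays of this panel Not Active means under 50% inhibition at 10 µM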
T2 sequence (P12822 whole entry): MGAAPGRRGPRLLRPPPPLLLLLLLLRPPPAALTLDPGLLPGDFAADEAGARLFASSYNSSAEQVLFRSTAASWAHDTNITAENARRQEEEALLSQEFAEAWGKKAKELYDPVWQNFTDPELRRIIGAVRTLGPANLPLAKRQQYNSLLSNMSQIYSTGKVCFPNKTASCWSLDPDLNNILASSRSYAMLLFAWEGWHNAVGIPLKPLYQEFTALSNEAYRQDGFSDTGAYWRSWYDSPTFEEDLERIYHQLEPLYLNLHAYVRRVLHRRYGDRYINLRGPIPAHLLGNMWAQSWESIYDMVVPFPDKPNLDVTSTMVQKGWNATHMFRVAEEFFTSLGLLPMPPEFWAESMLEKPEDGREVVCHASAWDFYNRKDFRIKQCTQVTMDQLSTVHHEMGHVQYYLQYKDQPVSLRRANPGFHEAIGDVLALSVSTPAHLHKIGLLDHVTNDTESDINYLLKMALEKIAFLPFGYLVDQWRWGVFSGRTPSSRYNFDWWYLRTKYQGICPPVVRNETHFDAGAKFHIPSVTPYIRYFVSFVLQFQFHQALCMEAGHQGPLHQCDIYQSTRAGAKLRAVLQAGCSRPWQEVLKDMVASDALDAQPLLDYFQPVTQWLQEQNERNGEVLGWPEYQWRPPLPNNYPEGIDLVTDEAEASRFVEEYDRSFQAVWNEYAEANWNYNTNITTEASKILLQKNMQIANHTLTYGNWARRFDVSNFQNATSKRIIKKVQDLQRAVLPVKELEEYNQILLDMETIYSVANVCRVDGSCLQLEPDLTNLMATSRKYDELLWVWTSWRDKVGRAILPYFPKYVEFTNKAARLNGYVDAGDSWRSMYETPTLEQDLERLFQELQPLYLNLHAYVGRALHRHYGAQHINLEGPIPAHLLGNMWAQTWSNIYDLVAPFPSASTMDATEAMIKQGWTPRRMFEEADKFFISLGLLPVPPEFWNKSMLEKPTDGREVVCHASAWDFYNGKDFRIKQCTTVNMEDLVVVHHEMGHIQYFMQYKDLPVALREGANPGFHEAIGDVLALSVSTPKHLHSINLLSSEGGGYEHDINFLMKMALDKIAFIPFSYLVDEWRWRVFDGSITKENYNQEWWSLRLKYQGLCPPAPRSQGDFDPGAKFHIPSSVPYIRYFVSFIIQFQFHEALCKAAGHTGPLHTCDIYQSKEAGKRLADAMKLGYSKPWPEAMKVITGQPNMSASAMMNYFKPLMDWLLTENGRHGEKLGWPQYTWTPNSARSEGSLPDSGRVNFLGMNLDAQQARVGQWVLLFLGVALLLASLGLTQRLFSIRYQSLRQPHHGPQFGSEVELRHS

[8] = target: Mitogen-activated protein kinase 3 (Homo sapiens, UniProt P27361); test: DRUGMATRIX: Protein Serine/Threonine Kinase, ERK1 enzyme inhibition (substrate: Myelin Basic Protein); parameters: species or system Escherichia coli; conditions: Not Active = under 50% inhibition at 10 µM
[9] = target: T3, 5-hydroxytryptamine receptor 1A (Rattus norvegicus, UniProt P19327); assay type: cell membranes, CHO-K1, Membrane; conditions: cho-k1; further: in other assays of this panel Not Active means under 50% inhibition at 10 µM
T3 sequence (P19327 whole entry): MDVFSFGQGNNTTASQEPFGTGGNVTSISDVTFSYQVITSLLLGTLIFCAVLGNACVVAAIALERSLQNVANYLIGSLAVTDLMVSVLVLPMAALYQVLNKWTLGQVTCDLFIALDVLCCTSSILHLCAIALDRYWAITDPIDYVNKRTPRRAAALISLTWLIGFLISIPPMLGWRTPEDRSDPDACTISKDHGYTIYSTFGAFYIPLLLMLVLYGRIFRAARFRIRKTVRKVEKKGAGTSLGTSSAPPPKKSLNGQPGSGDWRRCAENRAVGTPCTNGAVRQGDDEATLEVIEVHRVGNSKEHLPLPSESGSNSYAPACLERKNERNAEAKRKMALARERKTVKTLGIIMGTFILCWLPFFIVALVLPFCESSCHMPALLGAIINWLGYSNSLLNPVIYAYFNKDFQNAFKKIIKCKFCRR

[10] = target: 5-hydroxytryptamine receptor 1B (Rattus norvegicus, UniProt P28564); assay type: cell membranes, Wistar, Cerebral cortex, Membrane; further: in other assays of this panel Not Active means under 50% inhibition at 10 µM
5-hydroxytryptamine receptor 1B, sequence (P28564 whole entry): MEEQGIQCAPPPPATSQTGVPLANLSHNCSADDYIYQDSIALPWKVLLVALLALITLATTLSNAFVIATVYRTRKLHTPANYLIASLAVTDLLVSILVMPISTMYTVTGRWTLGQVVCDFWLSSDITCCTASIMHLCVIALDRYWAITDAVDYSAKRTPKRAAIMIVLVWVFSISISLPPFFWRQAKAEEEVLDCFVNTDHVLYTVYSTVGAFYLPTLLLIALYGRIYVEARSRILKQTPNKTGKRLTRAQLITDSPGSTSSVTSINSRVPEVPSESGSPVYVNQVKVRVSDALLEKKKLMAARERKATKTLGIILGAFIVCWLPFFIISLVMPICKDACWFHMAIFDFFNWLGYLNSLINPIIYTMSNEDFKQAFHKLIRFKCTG

Mitogen-activated protein kinase 3, sequence (P27361 whole entry): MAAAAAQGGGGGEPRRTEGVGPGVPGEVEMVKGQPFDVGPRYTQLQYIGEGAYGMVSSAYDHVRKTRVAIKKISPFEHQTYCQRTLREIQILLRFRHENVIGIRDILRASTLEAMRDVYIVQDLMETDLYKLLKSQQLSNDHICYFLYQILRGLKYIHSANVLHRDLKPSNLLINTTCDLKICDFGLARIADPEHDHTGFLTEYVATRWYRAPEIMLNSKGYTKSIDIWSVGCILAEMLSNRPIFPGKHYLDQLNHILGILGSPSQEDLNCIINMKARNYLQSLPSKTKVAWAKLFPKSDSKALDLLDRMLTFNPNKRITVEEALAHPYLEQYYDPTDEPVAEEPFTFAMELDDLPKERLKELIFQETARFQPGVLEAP
Platelet-activating factor receptor, sequence (P25105 whole entry): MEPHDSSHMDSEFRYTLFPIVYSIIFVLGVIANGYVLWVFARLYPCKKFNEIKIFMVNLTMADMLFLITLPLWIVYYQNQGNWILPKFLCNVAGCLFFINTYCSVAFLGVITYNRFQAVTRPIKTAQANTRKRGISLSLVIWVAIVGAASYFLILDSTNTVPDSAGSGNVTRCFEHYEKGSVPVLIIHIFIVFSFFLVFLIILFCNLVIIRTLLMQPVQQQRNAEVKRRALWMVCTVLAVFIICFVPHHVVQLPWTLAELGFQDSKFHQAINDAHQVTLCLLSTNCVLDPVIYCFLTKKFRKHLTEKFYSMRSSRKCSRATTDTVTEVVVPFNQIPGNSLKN
5-hydroxytryptamine receptor 4, sequence (O70528 whole entry): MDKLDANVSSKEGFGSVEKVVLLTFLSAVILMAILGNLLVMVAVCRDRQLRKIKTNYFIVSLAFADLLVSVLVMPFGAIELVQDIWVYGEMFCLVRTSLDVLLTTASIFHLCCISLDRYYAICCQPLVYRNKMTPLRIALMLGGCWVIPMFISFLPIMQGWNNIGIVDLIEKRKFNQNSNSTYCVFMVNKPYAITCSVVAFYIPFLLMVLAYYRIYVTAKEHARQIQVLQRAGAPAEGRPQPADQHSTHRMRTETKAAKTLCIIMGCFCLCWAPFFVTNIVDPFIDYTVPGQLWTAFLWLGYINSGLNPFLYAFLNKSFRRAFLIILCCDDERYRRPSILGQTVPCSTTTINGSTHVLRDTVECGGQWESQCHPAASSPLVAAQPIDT

COc1ccc(C(CN(C)C)C2(O)CCCCC2)cc1 (configuration not stated) [VENLAFAXINE]
Not Active: IC50 [1] | IC50 [2] | IC50 [3] | IC50 [4] | Ki [4] | IC50 [5] | Ki [5] | IC50 [6] | IC50 [7] | IC50 [8] | IC50 [9] | IC50 [10]

IVERMECTIN
Not Active: IC50 [1] | Ki [1] | IC50 [2] | Ki [2] | IC50 [3] | Ki [3] | IC50 [4] | Ki [4] | IC50 [5] | Ki [5] | IC50 [6] | Ki [6] | IC50 [7] | Ki [7] | IC50 [8] | Ki [8] | IC50 [9] | Ki [9] | IC50 [10] | Ki [10]

— ChEMBL document CHEMBL1909046, “DrugMatrix in vitro pharmacology data”
